In the assay the test system is non-canonical WNT signaling in monocytes/macrophages. The experiment in a line: PBMC-derived macrophages stimulated with supernatant of hypoxic AdWIF1-transfected cardiomyocytes. The format is cell-based, rat. On the procedure:
Neonatal rat ventricular cardiomyocytes (NRVCMs) were isolated as previously described (Hagenmueller et al. 2010). After plating, NRVCMs were allowed to adhere overnight. Cardiomyocytes were cultured under hypoxic conditions (1.5% O2) for either four or 24 hours. Supernatant, RNA and proteins were harvested.
Premade WIF1 and control adenovirus was purchased from Applied Biological Materials Inc. (Richmond, Canada). Adenovirus was amplified according to the manufacturer's instructions. Cardiomyocytes were transfected according to manufacturer's instructions. WIF1 overexpression was allowed to establish for 48 hours. Transfected cardiomyocytes were than cultured under hypoxic conditions as described above (see 1.9).
Adult rats were euthanized using a high dose of pentobarbital. Blood was collected by cardiac puncture into EDTA-coated sample tubes. Mononuclear cells were separated using Histopaque 1083 (Sigma-Aldrich Chemie GmbH, Taufkirchen, Germany) according to manufacturer's instructions. Monocytes/macrophages were allowed to adhere to the cell culture dish for two hours. Non-adherent mononuclear cells were discarded. Macrophages were stimulated with supernatant of hypoxic cardiomyocytes for four hours.
Protein lysates of primary cells and heart tissue were prepared using RIPA buffer supplemented with phosphatase/proteinase inhibitors (Cell Signaling Technology, Danvers, USA). Protein concentrations were measured using BCA assay (ThermoFisher Scientific, Waltham, USA). Equal amounts of protein were separated onto four 15% SDS-PAGE gradient gels (Bio-Rad Laboratories GmbH, München, Germany) and transferred to PVDF membranes (Merck Chemicals GmbH, Darmstadt, Germany). The following primary and HPR-conjugated secondary antibodies were used: monoclonal mouse anti-Active-β-Catenin (anti ABC), clone 8E7 (Merck Millipore, Darmstadt, Germany); monoclonal rabbit anti-JNK1+JNK2+JNK3 [EP1597Y] […] Protein expression was analyzed using ImageJ. Protein bands were normalized to GAPDH (respectively actin) loading control for quantification. […]

[1] abbreviates: supernatant of WIF1-overexpressing cardiomyocytes vs control cells, FIG. 6B.

Take “WIF1: cardiomyocyte-derived WIF1 in supernatant of hypoxic cardiomyocytes transfected with WIF1 adenovirus (AdWIF1)”: under setting [1], the “transcription level of pro-inflammatory cytokine IL1β” value is reported as “reduced” and the “transcription level of pro-inflammatory cytokine IL6” value is recorded as “reduced”. The “JNK phosphorylation in isolated monocytes/macrophages” value (supernatant of hypoxic WIF1-overexpressing cardiomyocytes vs control supernatant, FIG. 6A) is on record as “significantly reduced”.
